In US5964224A, “Method for treating amyotrophic lateral sclerosis and a therapeutic agent therefor” (priority 1997, dated 1999):
Entries after “also recorded” stand apart in the source; their conditions may differ.

Assays:
patients with ALS [1] = conditions: cited from earlier work; for beneficial effects in ALS: anecdotal or preliminary observations; for potency in improving the clinical symptoms or prolonging life: patients with ALS
patients with ALS [2] = experiment: Averaged CMAP amplitudes before and after treatment in ALS patients, 0.5 mg/day i.v., 15 mg/day i.v. and 25 mg/day i.m. groups; assay type: in vivo, human
Procedure: (§1) […] were recorded bilaterally from the abductor pollicis brevis, abductor digiti minimi and abductor hallucis muscles after stimulation of the median, ulnar and tibial nerves at the wrist or at the ankle. Amplitudes were measured from the baseline to the negative peak. In each patient, the average amplitude from the six muscles (averaged CMAPs) served as an index of the number of muscle fibers innervated by spinal motoneurons. The method employed was that of Kelly et al.[Muscle Nerve 10, 471-179 (1990)] and Kimura [in Electrodiagnosis in diseases of nerve and muscle: principles and practice, 2nd edition, F. A. Davis ed.(1989), pages 85-87], the disclosures of which are incorporated herein by reference.
CMAP amplitudes were averaged in 10 patients with ALS treated with a low dose of methycobalamin (0.5 mg/day i.v. for 2 weeks). Those before the treatment and those 2 weeks after the completion of the treatment were compared.
CMAP amplitudes were averaged in 12 patients with ALS treated with a high dose of methylcobalamin (15 mg/day i.v. for 2 weeks). Those before the treatment, those at the end of the treatment and those 2 weeks after the completion of the treatment were compared.
CMAP amplitudes were averaged in 12 patients with ALS treated with an ultra-high dose of methylcobalamin (25 mg/day i.m. for 2 weeks). Those before the treatment, those at the end of the treatment and those 2 weeks after the completion of the treatment were compared.
The ratio of averaged CMAP amplitudes at 2 weeks after the completion of the treatment (after 4 wks) was compared with those before the treatment.

rabbit = conditions: 50 mg/kg/day, organogenesis; cited from earlier work
[3] = intramuscular versus intravenous route; cited from earlier work
rat [4] = conditions: 20 mg/kg/day i.p. (organogenesis) or 50 mg/kg i.v. (pre-gestation to postnatal); cited from earlier work
rats = conditions: 0.5, 5.0 and 20.0 mg/kg/day i.p., 30 days; cited from earlier work
rat [5] = conditions: same doses as subacute, 6 months; cited from earlier work
beagles [6] = conditions: 50.0 mg/kg/day, 6 months, cited from earlier work
animals = conditions: cited from earlier work
patient with ALS = experiment: Time course of averaged CMAP amplitude in a patient with ALS given 50 mg/day; assay type: in vivo, human; conditions: day 0 through 13, one patient
Procedure: as §1
These clinical benefits and improved CMAPs usually lasted for 1-3 months, then followed by deterioration. […] Serial changes of averaged CMAP amplitudes in low dose (0.5 mg/day i.m., n=12) group and high dose (25 mg/day i.m., n=12) group were examined. Methylcobalamin was given during day 0 through day 13. […] The time course of averaged CMAP amplitude changes in a patient with ALS who was given 50 mg/day of methylcobalamin during day 0 day through 13 was examined.

patients with ALS [7] = experiment: Clinical symptoms (gait, weakness) and duration of benefit in ALS patients; assay type: in vivo, human
Procedure: (§2) A total of 24 ALS patients without respiratory failure entered the study after giving an informed consent for the protocol approved by the Institutional Review Board. Twelve of them (High Dose Group; age 45-66 years, 5 men) received the ultra-high dose (25 mg/day or 360-610 μg/kg/day, i.m.) methylcobalamin and the other 12 (Low Dose Group; age 41-66 years, 6 men) received the low dose (0.5 mg/day or […],i.m.) as a control. The two groups were matched for age, disease durations (19.6±4.1 versus 21.7±3.2 months) and initial averaged CHAP amplitudes (5.27±0.84 versus 4.48±0.91 mV). The patients were blinded as to the dose. The examiner, who was not informed of the dose, measured CMAPs immediately before starting methylcobalamin (day 1), at the end of 2 weeks of administration (day 14) and at 4 weeks after the start (day 28).

patients with ALS [8] = experiment: Double-blind trial: averaged compound muscle action potential (CMAP) amplitudes in ALS patients, ultra-high versus low dose i.m.; assay type: in vivo, human
Procedure: (§3) To develop a symptomatic treatment for amyotrophic lateral sclerosis, I have compared the effects of ultra-high dose and low dose (25 mg/day and 0.5 mg/day, i.m. for 14 days) of methylcobalamin on the averaged compound muscle action potential amplitudes, which serve as an index of muscle power, in a double-blind trial.
as §1, §2

mouse = conditions: 20 mg/kg/day i.p., organogenesis; cited from earlier work
beagles [9] = conditions: 90 days, cited from earlier work
patients with ALS [10] = experiment: Adverse reactions in ALS patients (clinical trial); assay type: in vivo, human
Procedure: as §3, §2

[11] = degraded into hydoxycobalamin; cited from earlier work
[12] = High Dose Group, 25 mg/day i.m., n=12

## O=P1(N(CCCl)CCCl)NCCCO1 (stereo not shown) [cyclophosphamide]
Patients with ALS [1]
  beneficial effects in ALS: beneficial effects

## COc1ccc2c(c1)[C@]13CCCC[C@@H]1[C@H](C2)N(C)CC3 [dextromethorphan]
Patients with ALS [1]
  potency in improving the clinical symptoms or prolonging life: not yet convincingly shown their potency

## C/C1=C2/[N-][C@H]([C@H](CC(N)=O)[C@@]2(C)CCC(=O)NC[C@@H](C)OP(=O)([O-])O[C@H]2[C@@H](O)[C@@H](n3cnc4cc(C)c(C)cc43)O[C@@H]2CO)[C@]2(C)N=C(/C(C)=C3N=C(/C=C4N=C1[C@@H](CCC(N)=O)C\4(C)C)[C@@H](CCC(N)=O)[C@]\3(C)CC(N)=O)[C@@H](CCC(N)=O)[C@]2(C)CC(N)=O.[CH3-].[Co+3] [methylcobalamin]
Patients with ALS [2]; 0.5 mg/day i.v. for 2 weeks, 10 patients, 2 weeks after completion vs before
  change in averaged CMAP amplitude: No significant changes were found
Patients with ALS [2]; 15 mg/day i.v. for 2 weeks, 12 patients, before, end, 2 weeks after completion
  change in averaged CMAP amplitude: tendency toward increase of CMAPs at 2 weeks after the completion of the treatment, no statistically significant differences were found
Patients with ALS [2]; 25 mg/day i.m. for 2 weeks, 12 patients, 2 weeks after completion
  change in averaged CMAP amplitude: statistically significant increase of CMAPs at 2 weeks after the completion of the treatment
Patients with ALS [2]; 25 mg/day i.m. versus 0.5 mg/day i.v., 2 weeks, FIG. 1
  ratio of averaged CMAP amplitudes 2 weeks after completion to before treatment, ultra-high versus low dose group: statistically significant difference
Patients with ALS [2]; 25 mg/day i.m. versus 0.5 mg/day i.v., unpaired t-test
  p value, ratio of averaged CMAP amplitudes between groups: < 0.05
rabbit
  changes in the embryo, the fetus or the neonate: no significant changes in the embryo, the fetus or the neonate
[3]
  half life in the blood level: longer half life in the blood level
Rat [4]
  changes in the embryo, the fetus or the neonate: no significant changes in the embryo, the fetus or the neonate
rats
  general conditions, body weight, blood and urine chemistry, organ weights and histological findings: no significant changes in the general conditions, body weight, blood and urine chemistry, organ weights and histological findings
Rat [5]
  chronic toxicity findings: No significant changes were found
Beagles [6]
  Kupffer cells in the liver: increased number of Kuppfer cells in the liver
  lysosomes, electron microscopy: increase in lysosomes
  mesangial cells in the renal glomeruli: lysosomal increase in the mesangeal cells in the renal glomeruli
Beagles [6]; only this dose
  kidney proximal tubules, light microscopy: increased eosinophilic granules in the proximal tubules in the kidney
animals; 50 mg/kg/day, animals
  major side effects: no major side effects have been observed
animals; 50 mg/kg/day, on rare occasions
  edema and redness of the skin: transient edema and redness of the skin
animals; disappears after discontinuing the administration
  red urine: Red urine may be found, but it soon disappears
Patient with ALS
  time course of averaged CMAP amplitude: abrupt increase of the amplitude during and after the treatment
Patients with ALS [7]; 15-500 mg/day, i.m., s.c. or i.v. for 14 days (summary statement)
  subjective weakness: improves the subjective weakness
Patients with ALS [7]; [12]
  improvement in gait and weakness: Two patients in High Dose Group noted an improvement in gait and weakness
Patients with ALS [7]; High Dose Group, 25 mg/day i.m., then followed by deterioration
  duration of clinical benefits and improved CMAPs: 1-3 months
Patients with ALS [7]; ultra-high dose, ALS patients
  improvement of clinical symptoms and objective clinical measure: improvement of both clinical symptoms and an objective clinical measure
Patients with ALS [8]; 25 mg/day and 0.5 mg/day i.m., n=12 each
  ratio of averaged CMAP amplitude at day 14 or day 28 to that at day 0: only the high dose group showed a significant increase in the ratio at day 28
Patients with ALS [8]; 25 mg/day i.m., at 2 weeks (day 14)
  change in averaged CMAP amplitude: not at 2 weeks
Patients with ALS [8]; 25 mg/day versus 0.5 mg/day i.m.
  CMAP amplitude ratio between day zero and day 28, High Dose versus Low Dose Group: significantly higher ratio than Low Dose Group
Patients with ALS [8]; 15-500 mg/day, i.m., s.c. or i.v. for 14 days, low dose as control (summary statement)
  parameter of muscle power (CMAPs): significantly increases the parameter of muscle power
Patients with ALS [8]; low dose 0.5 mg/day i.m. for 14 days, at 2 or 4 weeks
  change in averaged CMAP amplitude: No significant changes in CMAP amplitude
Patients with ALS [8]; low dose 0.5 mg/day i.m. for 14 days, at 2 or 4 weeks, listed as Methylcobalamin
  change in averaged CMAP amplitude: no significant changes in CMAP amplitude
Patients with ALS [8]; ultra-high dose 25 mg/day i.m. for 14 days, at 4 weeks (day 28)
  change in averaged CMAP amplitude: significant increase at 4 weeks; also recorded: increase of averaged CMAP amplitudes at day 28
Patients with ALS [8]; ultra-high dose 25 mg/day i.m. for 14 days, at 4 weeks (day 28), listed as Methylcobalamin
  change in averaged CMAP amplitude: significant increase at 4 weeks
mouse
  changes in the embryo, the fetus or the neonate: no significant changes in the embryo, the fetus or the neonate
Beagles [9]; 50.0 mg/kg/day i.v., a dog
  epididymis findings: No changes were noted in the epidydimis
  histological finding in the kidney: increased eosinophilic granules in the proximal tubules in the kidney
Beagles [9]; 0.5, 5.0 and 50.0 mg/kg/day i.v.
  subacute toxicity findings: normal findings
Patients with ALS [10]; [12]
  adverse reactions: elevation of serum GOT and GPT: mild elevation of serum GOT and GPT in another
  adverse reactions: skin rash: skin rash in one patient
Patients with ALS [10]; High Dose Group, 25 mg/day i.m., both
  duration of adverse reactions (skin rash; GOT/GPT elevation): about a week
Patients with ALS [10]; clinical trial, 25 mg/day and 0.5 mg/day i.m. for 14 days
  major side effects: No major side effects were seen
[11]
  light sensitivity: light-sensitive, and is easily degraded into hydoxycobalamin

## Nc1nc2ccc(OC(F)(F)F)cc2s1 [riluzole]
Patients with ALS [1]; a subgroup of ALS
  prolongation of life without tracheostomy: 1-3 months

## IGF-1: insulin-like growth factor-1
Patients with ALS [1]
  beneficial effects in ALS: beneficial effects

## superoxide dismutase
Patients with ALS [1]
  potency in improving the clinical symptoms or prolonging life: not yet convincingly shown their potency

## vitamin E
Patients with ALS [1]
  potency in improving the clinical symptoms or prolonging life: not yet convincingly shown their potency

B1: ciliary neurotrophic factor: ciliary neurotrophic factor (protein, UniProt P26441 1-200, looked up)
Ciliary neurotrophic factor: MAFTEHSPLTPHRRDLCSRSIWLARKIRSDLTALTESYVKHQGLNKNINLDSADGMPVASTDQWSELTEAERLQENLQAYRTFHVLLARLLEDQQVHFTPTEGDFHQAIHTLLLQVAAFAYQIEELMILLEYKIPRNEADGMPINVGDGGLFEKKLWGLKVLQELSQWTVRSIHDLRFISSHQTGIPARGSHYIANNKKM
Patients with ALS [1]
  potency in improving the clinical symptoms or prolonging life: not yet convincingly shown their potency
